This note sets out measurements from ChEMBL document CHEMBL1123686, “Esters of N,N-disubstituted 2-hydroxyacetamides as a novel highly biolabile prodrug type for carboxylic acid agents” (J Med Chem, 1987).

What is called half-life is the time in which the quantity being followed falls by half. A lower half-life goes with fast loss. As usually defined, the solubility is the dissolved amount per volume that the medium holds. As usually defined, the logD is lipophilicity at a set pH, counting ionised and neutral species. A high value points to higher lipophilicity.

Values after ≈ are worked out from the molar mass of the structure shown.

Data set [1] is described as follows: (§1) Half life of ester hydrolysis in 50% human plasma ( pH of 7.4) at 37 degree Centigrade. As to conditions: 50% human plasma, pH 7.4.
Data set [2] is described as follows: Second order rate constant for hydroxide ion catalyzed by hydrolysis at 37 degree Centigrade.
The species named for data set [3] is Homo sapiens. The description is as §1. The following applies: pH 7.4.
A short description of data set [4]: physchem.
Data set [5] is described as follows: physchem. This is another data set of the same source.
Data set [6] is filed under the species Homo sapiens. As to conditions: Plasma, pH 7.4.
Description: Ability to undergo in vitro ester hydrolysis in 80% human plasma ( pH of 7.4) at 37 degree Celsius expressed as half life of N,N-diethylglycolamide ester hydrolysis
The species named for data set [7] is Homo sapiens. As to conditions: Plasma, pH 7.4. This is another data set of the same source.
Description: Ability to undergo in vitro ester hydrolysis in 80% human plasma ( pH of 7.4) at 37 degree Celsius expressed as half life of methyl ester hydrolysis
Data set [8] is described as follows: Half life of ester hydrolysis in 50% human plasma ( pH of 7.4) at 37 degree Centigrade. Format: ADME, organism-based. The following applies: pH 7.4.

Molecule `CN(CCO)C(=O)COC(=O)c1ccccc1` returned a half-life in data set [1] of 0.2 min. In data set [2], this molecule had a kOH of 0.268 M⁻¹ s⁻¹.
Take `C=CCN(CC=C)C(=O)COC(=O)c1ccccc1` [BENZOIC ACID DIALLYLCARBAMOYLMETHYL ESTER]: the T1/2 in the data set listed under Homo sapiens [3] was determined as 0.08 min. Further, the kOH in data set [2] came to 0.307 M⁻¹ s⁻¹. The solubility in the data set “physchem [4]” came out at 0.71 mg/mL (≈ 2.74 mM). Besides, the logD in the data set “physchem [5]” (octanol/water) is 2.34.
With `CN(C)C(=O)COC(=O)c1ccccc1` [BENZOIC ACID DIMETHYLCARBAMOYLMETHYL ESTER], the half-life in data set [1] came out at 0.15 min. The molecule further returned a kOH in data set [2] of 0.325 M⁻¹ s⁻¹. In the data set “physchem [4]”, this molecule displayed a solubility of 8.8 mg/mL (≈ 42.5 mM).
For the molecule `O=C(O)c1ccccc1O` [SALICYLIC ACID], the T1/2 is 0.08 min in the data set filed under Homo sapiens [6] and 17.6 h in the data set filed under Homo sapiens [7].
As for `CCCNC(=O)COC(=O)c1ccccc1` [BENZOIC ACID PROPYLCARBAMOYLMETHYL ESTER], the half-life in data set [1] turned out to be 11.2 min. In data set [2], this molecule returned a kOH of 0.868 M⁻¹ s⁻¹. The molecule also showed a solubility in the data set “physchem [4]” of 0.64 mg/mL (≈ 2.89 mM). Besides, the logD in the data set “physchem [5]” (0.01 M HCl) was found to be 1.88.
Consider `O=C(OCC(=O)N(CCO)CCO)c1ccccc1`, for which, in data set [1], the half-life came to 0.42 min. In data set [2], this molecule gave a kOH of 0.23 M⁻¹ s⁻¹. The molecule further gave a solubility in the data set “physchem [4]” of 720 mg/mL (≈ 2690 mM).
Regarding `COc1ccc2c(c1)c(CC(=O)O)c(C)n2C(=O)c1ccc(Cl)cc1` [INDOMETHACIN], the T1/2 stood at 25 min in the data set filed under Homo sapiens [6] and 150 h in the data set filed under Homo sapiens [7].
The molecule `CCN(CCO)C(=O)COC(=O)c1ccccc1` registered a half-life in data set [1] of 0.16 min. The molecule further yielded a kOH in data set [2] of 0.273 M⁻¹ s⁻¹.
Consider `CCCCN(CCCC)C(=O)COC(=O)c1ccccc1` [BENZOIC ACID DIBUTYLCARBAMOYLMETHYL ESTER], for which the half-life in data set [1] was determined as 3.1 min. Moreover, the kOH in data set [2] turned out to be 0.188 M⁻¹ s⁻¹. The solubility in “physchem [4]” was determined as 0.08 mg/mL (≈ 0.275 mM).
In turn, `CCOC(=O)CN(C)C(=O)COC(=O)c1ccccc1` came in with a half-life in data set [1] of 0.22 min.
As for `CN(C)CCN(C)C(=O)COC(=O)c1ccccc1.Cl`, the half-life in data set [1] was determined as 0.12 min. In data set [2], this molecule had a kOH of 0.297 M⁻¹ s⁻¹. In the data set “physchem [4]”, the solubility was more than 200 mg/mL.
`CCN(CC)C(=O)COC(=O)c1ccccc1` [BENZOIC ACID DIETHYLCARBAMOYLMETHYL ESTER]: the T1/2 in the data set filed under Homo sapiens [3] was 0.04 min. The kOH in data set [2] was determined as 0.273 M⁻¹ s⁻¹. In the data set “physchem [4]”, the concentration in solution (solubility) was 2 mg/mL (≈ 8.5 mM).
In the case of `CCCN(CCC)C(=O)COC(=O)c1ccccc1` [BENZOIC ACID DIPROPYLCARBAMOYLMETHYL ESTER], the half-life in data set [1] is 0.14 min. The same molecule yielded a kOH in data set [2] of 0.237 M⁻¹ s⁻¹.
In data set [1], `CN(CC(=O)O)C(=O)COC(=O)c1ccccc1` gave a half-life of 104 min. In data set [2], the kOH was determined as 0.25 M⁻¹ s⁻¹. In addition, the log distribution coefficient (logD) in “physchem [5]” (0.01 M HCl) was 0.67.
As for `CC(C)(C)NC(=O)COC(=O)c1ccccc1`, the half-life in data set [1] was 4.2 min. For the same molecule, in data set [2], the kOH stood at 0.855 M⁻¹ s⁻¹. The molecule further gave a solubility in the data set “physchem [4]” of 0.32 mg/mL (≈ 1.36 mM). For the same molecule, the logD in the data set “physchem [5]” (0.01 M HCl) amounted to 2.26.
In the case of `CNC(=O)COC(=O)c1ccccc1` [BENZOIC ACID METHYLCARBAMOYLMETHYL ESTER], the half-life in data set [1] was determined as 9.3 min. This molecule also yielded a kOH in data set [2] of 1.42 M⁻¹ s⁻¹. In addition, in the data set “physchem [4]”, the solubility was determined as 3.7 mg/mL (≈ 19.2 mM). In addition, the logD in the data set “physchem [5]” (0.01 M HCl) stood at 0.99.
Turning to `CN1CCN(C(=O)COC(=O)c2ccccc2)CC1`, in data set [1], the half-life was 12.7 min. In data set [2], this molecule displayed a kOH of 0.357 M⁻¹ s⁻¹.
For the molecule `CCNC(=O)COC(=O)c1ccccc1` [BENZOIC ACID ETHYLCARBAMOYLMETHYL ESTER], the half-life in data set [1] is 11.5 min. Further, in data set [2], the kOH was 1.1 M⁻¹ s⁻¹. For the same molecule, the concentration in solution in the data set “physchem [4]” (solubility) came to 1.2 mg/mL (≈ 5.79 mM). Also, the logD in “physchem [5]” (0.01 M HCl) came out at 1.28.
As to `NC(=O)COC(=O)c1ccccc1` [BENZOIC ACID CARBAMOYLMETHYL ESTER], the half-life in data set [8] was 31 min. In data set [2], this molecule returned a kOH of 1.32 M⁻¹ s⁻¹. Further, the solubility in “physchem [4]” turned out to be 4.1 mg/mL (≈ 22.9 mM). The logD in the data set “physchem [5]” (0.01 M HCl) was found to be 0.09.
